# *1 amine or outer side, *2 acyl side, *3 side chain or, on linkers, in order; H or OH if unused. Where a SMILES comes first, the peptide text is derived from it. Bridges are numbered along the chain shown (N, C = ends). [ ]: non-standard residue; d: D form. X1 = O=C(CC1(S[*:2])CCCCC1)[*:1]; αMeV = CC(C)[C@](C)(N)C(=O)O; Aib = CC(C)(N)C(=O)O
# Experiments:
# [1] = biological target: T1, V2-vasopressin receptors (Sus scrofa, UniProt P32307); assay: receptor binding ability measured by inhibition of 3H-LVP binding; conditions: read-out: Pig V2 KB
# T1 construct: in the medullary tissue of hog kidneys; from tissue; host or cells: hog kidney medullary tissue
# T1 sequence (P32307 whole entry): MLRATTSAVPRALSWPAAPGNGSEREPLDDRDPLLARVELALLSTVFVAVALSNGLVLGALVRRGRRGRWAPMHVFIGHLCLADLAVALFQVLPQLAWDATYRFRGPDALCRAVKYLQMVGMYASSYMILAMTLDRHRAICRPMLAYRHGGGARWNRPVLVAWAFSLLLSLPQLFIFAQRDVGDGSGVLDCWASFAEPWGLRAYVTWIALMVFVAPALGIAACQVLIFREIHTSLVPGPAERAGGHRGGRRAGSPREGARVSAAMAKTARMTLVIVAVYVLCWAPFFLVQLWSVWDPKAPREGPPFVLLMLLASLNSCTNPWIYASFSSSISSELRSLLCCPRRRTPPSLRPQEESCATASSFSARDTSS
# Method: (§1) Antagonistic activity at the V2 -vasopressin receptors is determined in a protocol which determines in vitro activity in pig tissue or in vivo diuretic activity in the hydropenic rat (ED300 μg/kg). These procedures are described in the literature. F. Stassen et al., 1st International Conference on Diuretics, Miami, Fla., March (1984).
# (§2) Antagonistic activity at the V1 -vasopressin receptors is determined in a protocol which measures the reversal of the vasopressin induced contraction of rat thoracic aorta tissue. This is expressed as KB (nM) in the table below. Such anti-pressor activity is confirmed in a similar in vitro protocol using the plasma membranes of rat liver. V2 -vasopressin antagonism is determined as receptor binding ability measured by inhibition of 3H-LVP binding (KB as nM), by inhibition of adenylate cyclase activation by vasopressin in the medullary tissue of hog kidneys (Ki as nM) or in vivo in the […] rat protocol (ED300 μg/kg). These procedures are described in the literature: F. Stassen et al., J. Pharmacology and Experimental Therapeutics, 223 50 (1982).
# [2] = biological target: T1, V2-vasopressin receptors; assay: inhibition of adenylate cyclase activation by vasopressin in the medullary tissue of hog kidneys; format: biochemical; conditions: hog kidney medullary tissue, vasopressin-activated adenylate cyclase; read-out: Pig V2 Ki
# Method: as §1
# as §2, with “Such anti-pressor activity is confirmed in a similar in vitro protocol using the plasma membranes of rat liver.” left out
# [3] = biological target: T2, V1-vasopressin receptors (Rattus norvegicus, UniProt P30560); assay: reversal of the vasopressin induced contraction of rat thoracic aorta tissue
# T2 construct: vasopressin induced contraction of rat thoracic aorta tissue; from tissue; host or cells: rat thoracic aorta tissue
# T2 sequence (P30560 whole entry): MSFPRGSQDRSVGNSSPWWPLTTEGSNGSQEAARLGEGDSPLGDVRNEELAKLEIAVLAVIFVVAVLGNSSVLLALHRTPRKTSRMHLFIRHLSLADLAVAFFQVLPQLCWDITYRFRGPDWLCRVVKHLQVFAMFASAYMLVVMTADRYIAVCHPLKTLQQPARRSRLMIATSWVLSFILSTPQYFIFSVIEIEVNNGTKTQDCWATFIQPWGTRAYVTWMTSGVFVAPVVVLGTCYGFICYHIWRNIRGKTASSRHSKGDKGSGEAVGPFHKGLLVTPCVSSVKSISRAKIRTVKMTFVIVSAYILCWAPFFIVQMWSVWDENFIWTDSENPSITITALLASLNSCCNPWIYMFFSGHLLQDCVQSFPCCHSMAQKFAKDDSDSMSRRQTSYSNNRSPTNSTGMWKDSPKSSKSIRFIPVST
# Method: as §2
smiles,measurement,setting,value
"CCOc1ccc(C[C@H]2NC(=O)CC3(CCCCC3)SSC[C@@H](C(=O)N3CCC[C@H]3C(=O)N[C@@H](CCCNC(=N)N)C(N)=O)NC(=O)[C@H](CC(N)=O)NC(=O)C(C)(C)NC(=O)[C@H](Cc3ccccc3)NC2=O)cc1 [B, [1-(β,β-cyclopentamethylene-β-mercaptopropionic acid)-2-(O-ethyl-D-tyrosine)-4-α-aminoisobutyric acid-8-arginine-9-desglycine]vasopressin] ([dY](Et)F[Aib]NCPR-NH2; linker N-5 via X1)",Kb,[1],580 nM
same,Ki,[2],140 nM
"CCOc1ccc(C[C@H]2NC(=O)CC3(CCCCC3)SSC[C@@H](C(=O)N3CCC[C@H]3C(=O)N[C@@H](CCCNC(=N)N)C(=O)NCC(N)=O)NC(=O)[C@H](CC(N)=O)NC(=O)[C@](C)(C(C)C)NC(=O)[C@H](Cc3ccccc3)NC2=O)cc1 [C, [1-(β,β-cyclopentamethylene-β-mercaptopropionic acid)-2-(O-ethyl-D-tyrosine)-4-α-methylvaline-8-arginine]vasopressin] ([dY](Et)F[αMeV]NCPRG-NH2; linker N-5 via X1)",Kb,[1],11 nM
same,Ki,[2],31 nM
"COc1ccc(C[C@@H]2NC(=O)CC3(CCCCC3)SSC[C@@H](C(=O)N3CCC[C@H]3C(=O)N[C@@H](CCCNC(=N)N)C(=O)NCC(N)=O)NC(=O)[C@H](CC(N)=O)NC(=O)[C@](C)(C(C)C)NC(=O)[C@H](Cc3ccccc3)NC2=O)cc1 [D, [1-(β,β-cyclopentamethylene-β-mercaptopropionic acid)-2-(O-methyl L-tyrosine)-4-α-methylvaline-8-arginine]vasopressin] (Y(Me)F[αMeV]NCPRG-NH2; linker N-5 via X1)",Kb,[1],170 nM
same,Ki,[2],490 nM
same,Kb,[3],18 nM
"CCOc1ccc(C[C@H]2NC(=O)CC3(CCCCC3)SSC[C@@H](C(=O)NC(C)(C)C(=O)N[C@@H](CCCNC(=N)N)C(=O)NCC(N)=O)NC(=O)[C@H](CC(N)=O)NC(=O)[C@H](C(C)C)NC(=O)[C@H](Cc3ccccc3)NC2=O)cc1 [A, [1-(β,β-cyclopentamethylene-β-mercaptopropionic acid)-2-(O-ethyl-D-tyrosine)-4-valine-7-α-aminoisobutyric acid-8-arginine]vasopressin] ([dY](Et)FVNC[Aib]RG-NH2; linker N-5 via X1)",Kb,[1],9.2 nM
same,Ki,[2],18 nM
"CCOc1ccc(C[C@H]2NC(=O)CC3(CCCCC3)SSC[C@@H](C(=O)NC(C)(C)C(=O)N[C@@H](CCCNC(=N)N)C(N)=O)NC(=O)[C@H](CC(N)=O)NC(=O)[C@H](C(C)C)NC(=O)[C@H](Cc3ccccc3)NC2=O)cc1 [E, [1-(β,β-cyclopentamethylene-β-mercaptopropionic acid)-2-(O-ethyl-D-tyrosine)-4-valine-7-α-aminoisobutyric acid-8-arginine-9-desglycine]vasopressin] ([dY](Et)FVNC[Aib]R-NH2; linker N-5 via X1)",Kb,[1],15 nM
same,Ki,[2],16 nM
"CCOc1ccc(C[C@H]2NC(=O)CC3(CCCCC3)SSC[C@@H](C(=O)N3CCC[C@H]3C(=O)N[C@@H](CCCN=C(N)N)C(=O)NCC(N)=O)NC(=O)[C@H](CC(N)=O)NC(=O)[C@H](C(C)C)NC(=O)[C@H](Cc3ccccc3)NC2=O)cc1 [G, [1-(β,β-cyclopentamethylene-β-mercaptopropionic acid)-2-(O-ethyl-D-tyrosine)-4-valine-8-arginine]vasopressin, reference compound] ([dY](Et)FVNCPRG-NH2; linker N-5 via X1)",Kb,[1],6.7 nM
same,Kb,[3],1.4 nM
"COc1ccc(C[C@@H]2NC(=O)CC3(CCCCC3)SSC[C@@H](C(=O)N3CCC[C@H]3C(=O)N[C@@H](CCCN=C(N)N)C(=O)NCC(N)=O)NC(=O)[C@H](CC(N)=O)NC(=O)[C@H](C(C)C)NC(=O)[C@H](Cc3ccccc3)NC2=O)cc1 [F, [1-(β,β-cyclopentamethylene-β-mercaptopropionic acid)-2-(O-methyl-L-tyrosine)-4-valine-8-arginine]vasopressin, reference compound] (Y(Me)FVNCPRG-NH2; linker N-5 via X1)",Kb,[1],35 nM
same,Ki,[2],88 nM
same,Kb,[3],12 nM
